Target: T1, Neuromedin-K receptor (Homo sapiens, UniProt P29371)
T1 sequence (P29371 whole entry): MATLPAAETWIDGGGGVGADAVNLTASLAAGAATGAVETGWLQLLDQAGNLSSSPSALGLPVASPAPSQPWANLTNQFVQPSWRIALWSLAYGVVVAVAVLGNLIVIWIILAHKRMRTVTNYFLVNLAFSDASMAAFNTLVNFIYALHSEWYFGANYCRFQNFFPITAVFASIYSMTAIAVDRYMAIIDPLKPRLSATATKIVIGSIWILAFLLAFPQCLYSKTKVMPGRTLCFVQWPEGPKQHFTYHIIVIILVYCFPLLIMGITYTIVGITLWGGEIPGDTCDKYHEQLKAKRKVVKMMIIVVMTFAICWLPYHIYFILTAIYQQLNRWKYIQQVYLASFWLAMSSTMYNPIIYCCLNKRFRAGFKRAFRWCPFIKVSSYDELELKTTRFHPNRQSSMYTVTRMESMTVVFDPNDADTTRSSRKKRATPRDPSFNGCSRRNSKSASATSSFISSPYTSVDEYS
Test: Binding Competition Assay: NK3: The ability of compounds of the invention to inhibit the binding of the NK-3 receptor selective antagonist 3H-SB222200 was assessed by an in vitro radioligand binding assay. Membranes were prepared from Chinese hamster ovary recombinant cells stably expressing the human NK3 receptor. The membranes were incubated with 5 nM 3H-SB222200 (ARC) in a HEPES 25 mM/NaCl 0.1M/CaCl2 1 mM/MgCl2 5 Mm/BSA 0.5%/Saponin 10 μg/ml buffer at pH 7.4 and various concentrations of compounds of the invention. The amount of 3H-SB222200 bound to the receptor was determined after filtration by the quantification of membrane associated radioactivity using the TopCount-NXT reader (Packard).

In the case of Cc1coc(-c2nnc3n2CCN[C@@H]3C)n1, the Ki is reported as 51 nM.

Reference: ChEMBL document CHEMBL5728314, “Chiral N-acyl-5,6,7(8-substituted)-tetrahydro-[1,2,4]triazolo[4,3-a]pyrazines as selective NK-3 receptor antagonists, pharmaceutical composition, methods for use in NK-3 receptor mediated disorders and chiral synthesis thereof” (2021)
